Values after ≈ are worked out from the molar mass of the structure shown. Values joined by “and” are separate entries in the source; they are usually repeats but may differ in a detail not shown here. Equal values may be shown once. Read-outs that look alike come from different tables or passages of the source. Where a SMILES comes first, the peptide text is derived from it. Bridges are numbered along the chain shown (N, C = ends).
Key:
[1] = test system: Malassezia pachydermatis ATCC 14522; test: Broth-microdilution test and subsequent plating on agar, fungi (yeasts); format: cell-based; details: 2 h contact at 37° C., CFU count on agar Sabouraud
Description: (§1) The inoculum was set up by culturing Candida albicans ATCC 10231 and Malassezia pachydermatis ATCC 14522 in Czapek-Dox broth medium (DIFCO) for 48-72 h. On the assay day, the fungal culture was centrifuged at 1700×g for 15 min, the pellet was resuspended in phosphate buffer and submitted to shaking by the use of an electric vortex to disperse the fungal cell aggregates. The suspension was diluted until an optical density equal to an opacity of 0.5 on the McFarland turbidimetric scale was reached, which contains approximately 1-5×10^6 cell/ml (Branda J. A., Krantz A. Effectc of yeast on automated cell counting. Am J Clin Pathol., 2006:126, 248-254).
(§2) The peptides were tested for their ability to inhibit fungal growth. Fifty microliters of peptide at a concentration comprised between about 0.2 mM and about 50 mM were added in 96-well U-bottom plates containing phosphate buffer and one of the following fungi: Candida albicans ATCC 10231 and Malassezia pachydermatis ATCC 14522. After 2 h incubation at 37° C., fungi were transferred on the solid medium agar Sabouraud. As a control, fungal cultures were cultured in the absence of peptide.
(§3) The fungal suspension was put in contact for two hours with different concentrations of the peptide at the temperature of 37° C. After incubation, 20 μl were drawn from the wells of each dilution and seeded on the solid medium agar Sabouraud. The inoculum was evenly distributed on the agarized medium by means of a sterile disposable loop. After incubation for 24 h at the temperature of 37° C., counting of the fungal colonies (CFU) was performed.

[2] = test system: Candida albicans ATCC 10231; test: as above; format: cell-based; details: 2 h contact at 37° C., CFU count on agar Sabouraud
Description: as §1, §2, §3

[3] = test system: meticillin-resistant S. aureus ATCC 43300; test: Broth-microdilution test and subsequent plating on agar, Gram-positive bacteria; format: cell-based, Staphylococcus aureus; details: 2 h contact at 37° C., CFU count after 24 h
Description: (§4) For each bacterial strain, 3-5 morphologically similar colonies were drawn from fresh cultures, inoculated in Brain Hearth Infusion broth liquid medium and incubated at the temperature of 37° C. under shaking at 225 r.p.m. for 3-4 h. Subsequently, the bacterial suspension was centrifuged at 1000 g for 20 min and the thus obtained pellet was resuspended in phosphate buffer 10 mM. Turbidity was measured in a spectrophotometer with absorbance at 600 nm, equivalent in the range 0.08-0.13 to a concentration of about 10^8 CFU/ml. The bacterial suspension was diluted 1:100 in phosphate buffer 10 mM, and within 30 min, 50 microliters of such bacterial suspension (10^6 CFU/ml) were inoculated in each well of the microtiter plate, to obtain a final bacterial concentration of about 5×10^5 CFU/ml.
(§5) Several synthetic peptides were tested for their ability to inhibit bacterial growth. Fifty microliters of peptide at a concentration comprised between about 0.2 mM and about 50 mM were added to 96-well U-bottom plates containing phosphate buffer and one of the following bacteria: S. aureus ATCC 25923, meticillin-resistant S. aureus ATCC 43300. After 2 hour incubation at 37° C., bacteria were transferred on a solid medium. As a control, the bacterial cultures were cultured in the absence of peptide.
(§6) The bacterial suspension was put in contact for two hours with different concentrations of the peptide at the temperature of 37° C. After incubation, 20 μl were drawn from the wells of each dilution and seeded on solid medium, Columbia agar supplemented with 5% bovine red blood cells for Gram-positive bacteria. The inoculum was evenly distributed on the agarized medium by means of a sterile disposable loop. After incubation for 24 hours at the temperature of 37° C., counting of the bacterial colonies (CFU) was performed.

[4] = test system: S. aureus ATCC 25923; test: as above; format: cell-based, Staphylococcus aureus; details: meticillin-sensitive, 2 h contact at 37° C., CFU count after 24 h
Description: as §4, §5, §6

[5] = test system: Pseudomonas aeruginosa ATCC 27853; format: cell-based; details: for LD90 P. aeruginosa ATCC 27853: 2 h contact at 37° C., CFU count after 24 h
Description: as §4, with “min” for “min,”
(§7) Several peptides were tested for their ability to inhibit bacterial growth in liquid culture. Fifty microliters of peptide at a concentration comprised between about 0.2 mM and 50 mM were added in 96-well U-bottom plates containing liquid growth medium and one of the following bacteria: Escherichia coli ATCC 25922, P. aeruginosa ATCC 27853, Stenotrophomonas maltophilia ATCC 13637. After 2 hour incubation at 37° C., bacteria were transferred on a solid medium. As a growth control, bacterial cultures were cultured in the absence of peptides.
(§8) The bacterial suspension was put in contact for two hours with different concentrations of the peptide at the temperature of 37° C. After incubation, 20 μl were drawn from the wells of each dilution and seeded on solid medium, agar McConkey. The inoculum was evenly distributed on the agarized medium by means of a sterile disposable loop. After incubation for 24 h at the temperature of 37° C., counting of the bacterial colonies (CFU) was performed.

[6] = test system: Escherichia coli ATCC 25922; format: cell-based; details: for LD90 E. coli ATCC 25922: 2 h contact at 37° C., CFU count after 24 h
Description: as §4, with “min” for “min,”
as §7, §8

[7] = test system: Stenotrophomonas maltophilia ATCC 13637; test: Broth-microdilution test and subsequent plating on agar, Gram-negative bacteria; format: cell-based; details: 2 h contact at 37° C., CFU count after 24 h
Description: as §4, with “min” for “min,”
as §7, §8

[8] = test system: E. coli ML-35pYC; test: Membrane permeabilization assay (CENTA / ONPG kinetics); format: cell-based, Escherichia coli; details: peptide 12.5 μg/ml, logistic 4-parameter fit, read up to 240 min; for Inflexion point CENTA: CENTA substrate (periplasmic beta-lactamase)
Description: The strain ML-35pYC of E. coli was used to assay the kinetics of membrane permeabilization performed by the peptides of the invention. This bacterial strain expresses resistance to ampicillin, constitutive expression of cytoplasmic beta-galactosidase, and is engineered with a plasmid for the synthesis of a periplasmic beta-lactamase. Sixty microliters (60 μl) of bacterial suspension of strain ML-35pYC of E. coli were added to 60 μl of a 15 mM solution of ONPG or 1.5 mM of CENTA in phosphate buffer. Subsequently, 120 μl of the test peptides were added to obtain a final concentration of 12.5 μg/ml. The kinetics of the reaction was evaluated by recording the value of absorbance at […] and 405 nm, for ONPG and CENTA respectively, every 10 min up to a maximum of 240 min.
By “fitting” the experimental points with the logistic 4-parameter curve, it was possible to determine the inflexion point, that is the point where the curve changes direction, relative to the 3 test peptides. No inflexion point was observed during the assay with CENTA (inflexion point higher than 500 min).

[9] = test system: Jurkat cells; test: Cytotoxicity of peptides against Jurkat cells (Trypan Blue); format: cell-based; details: 20 μM
Description: Cytotoxicity of the peptides against T lymphocytes, for example Jurkat cells, was determined seeding the cells at a density of about 5*10^5 cells/ml in the presence and in the absence of peptides and incubating overnight at 37° C. in thermostat under CO2. As a negative cytotoxicity control, a medium lacking the test peptide was used, while as a positive cytotoxicity control, a medium containing 0.2% Triton X-100 was used, to completely lyse the cells. The cell viability was subsequently determined by adding 20 μl of Trypan Blue in each well, and by incubation of the cells for additional 5 min a 37° C. MCC10 value was calculated as the minimum peptide concentration necessary to induce 10% of cytotoxicity.

| SMILES | LD90 Malassezia pachydermatis [1] [µM] | LD90 Candida albicans [2] [µM] | LD90 MRSA ATCC 43300 [3] [µM] | LD90 S. aureus ATCC 25923 [4] [µM] | LD90 P. aeruginosa ATCC 27853 [5] [µM] | MBC P. aeruginosa ATCC 27853 [5] [µg/mL] | LD90 E. coli ATCC 25922 [6] [µM] | MBC E. coli ATCC 25922 [6] [µg/mL] | LD90 S. maltophilia ATCC 13637 [7] [µM] | Inflexion point CENTA [8] [min] | other results |
| --- | --- | --- | --- | --- | --- | --- | --- | --- | --- | --- | --- |
| CC(C)C[C@@H]1NC(=O)CNC(=O)[C@H](CCCNC(=N)N)NC(=O)[C@H](C(C)C)NC(=O)[C@H](CCCCN)NC(=O)[C@H](C(C)C)NC(=O)[C@H](CC(C)C)NC(=O)[C@H](C)NC(=O)[C@@H](NC(=O)CNC(=O)[C@@H](N)CCCCN)CSSC[C@@H](C(=O)N[C@@H](CCCCN)C(=O)O)NC(=O)[C@H](C(C)C)NC(=O)[C@H](CCCCN)NC(=O)[C@H](CC(C)C)NC(=O)[C@H]([C@@H](C)O)NC1=O (relative stereo) [Peptide P72, LYS*GLY*CYS*ALA*LEU*VAL*LYS*VAL*ARG*GLY*LEU*THR*LEU*LYS*VAL*CYS*LYS] | 0.68 | 1.03 | 0.90 | 3.39 | 0.87 | 2.84 (≈ 1.57 µM) | 0.86 | 9.68 (≈ 5.34 µM) | 1.88 | >500 | LD90 Malassezia pachydermatis ([1]; listed as 72): 0.68 μM and 1.24 μg/ml; LD90 Candida albicans ([2]; listed as 72): 1.03 μM and 1.87 μg/ml; LD90 MRSA ATCC 43300 ([3]; listed as 72): 0.90 μM and 1.65 μg/ml; LD90 S. aureus ATCC 25923 ([4]; listed as 72): 3.39 μM and 6.16 μg/ml; LD90 P. aeruginosa ATCC 27853 ([5]; listed as 72): 0.87 μM and 1.61 μg/ml; LD90 E. coli ATCC 25922 ([6]; listed as 72): 1.69 μg/ml and 0.86 μM; LD90 S. maltophilia ATCC 13637 ([7]; listed as 72): 1.88 μM and 3.42 μg/ml; Inflexion point ONPG ([8]; ONPG substrate (cytoplasmic beta-galactosidase)): 7.86 min |
| CC[C@H](C)[C@@H]1NC(=O)[C@H](Cc2ccccc2)NC(=O)[C@H](CCCCN)NC(=O)[C@H](C(C)C)NC(=O)CNC(=O)[C@H](CCCNC(=N)N)NC(=O)[C@H](Cc2c[nH]c3ccccc23)NC(=O)[C@H](CCC(N)=O)NC(=O)[C@H](Cc2c[nH]c3ccccc23)NC(=O)[C@H](CCCCN)NC(=O)[C@H](CCCNC(=N)N)NC(=O)[C@@H](NC(=O)[C@H](Cc2c[nH]c3ccccc23)NC(=O)[C@@H](N)CCCCN)CSSC[C@@H](C(=O)N[C@H](C(=O)O)C(C)C)NC(=O)[C@H](CCCCN)NC1=O (relative stereo) [Peptide P126, LYS*TRP*CYS*ARG*LYS*TRP*GLN*TRP*ARG*GLY*VAL*LYS*PHE*ILE*LYS*CYS*VAL] | 0.75 | 1.98 | >70 | 4.68 | 0.20 | 4.53 (≈ 2.01 µM) | 0.91 | 12.5 (≈ 5.56 µM) | 6.65 | >500 | LD90 Candida albicans ([2]; listed as 126): about 2 μM; LD90 MRSA ATCC 43300 ([3]; listed as 126): about 71 μM and ~100 μg/ml; LD90 S. aureus ATCC 25923 ([4]; listed as 126): 4.68 μM and 9.54 μg/ml; LD90 P. aeruginosa ATCC 27853 ([5]; listed as 126): 0.20 μM and 0.4 μg/ml; LD90 E. coli ATCC 25922 ([6]; listed as 126): 1.86 μg/ml and 0.91 μM |
| CC[C@H](C)[C@@H]1NC(=O)CNC(=O)[C@H](CCCNC(=N)N)NC(=O)[C@H](Cc2ccc(O)cc2)NC(=O)[C@@H]2CSSC[C@H](NC1=O)C(=O)N[C@@H](Cc1ccc(O)cc1)C(=O)N[C@@H](CCCNC(=N)N)C(=O)N[C@@H](CCCNC(=N)N)C(=O)N[C@H](C(=O)N[C@@H](CCCNC(=N)N)C(N)=O)CSSC[C@H](NC(=O)[C@H](Cc1c[nH]c3ccccc13)NC(=O)[C@@H](N)CCCCN)C(=O)N[C@@H](Cc1ccccc1)C(=O)N[C@@H](CCCNC(=N)N)C(=O)N[C@@H](C(C)C)C(=O)N2 [tachyplesin-1] (H-KWCFRVCYRGICYRRCR-NH2; disulfide 3-16, 7-12) |  |  |  |  |  |  |  |  |  |  | death of the cells (Jurkat) [9]: 10% |
